Experimental data: patent US12331037B2, “Pyrimidines as EGFR-inhibitors and methods of treating disorders” (Dana-Farber Cancer Institute, Inc., priority 2014, dated 2025)
Read-outs that look alike come from different tables or passages of the source.

Tests used:
[1] = test system: Ba/F3 EGFR L858R/T790M; assay: Ba/F3 cell proliferation (MTS) assay; format: cell-based, murine; conditions: Mus musculus
Procedure: (§1) Murine Ba/F3 cells are engineered to express mutant EGFR protein along with untransformed Ba/F3 cells and are used to performed single drug screens. Cell viability is assessed after 72 hours of compound i.e., compounds of Formula (I), exposure using the colorimetric cell proliferation MTS assay kit (Promega).
(§2) All experimental points were set up in six wells and all experiments were repeated at least three times. […] The curves were fitted using a non-linear regression model with a sigmoidal dose response.

[2] = test system: Ba/F3 EGFR WT; assay: Ba/F3 cell proliferation (MTS) assay; format: cell-based, murine; conditions: Mus musculus
Procedure: as §1, §2

[3] = test system: Ba/F3 EGFR DEL/T790M/L718Q; assay: Ba/F3 cell proliferation (MTS) assay; format: cell-based, murine; conditions: Mus musculus
Procedure: as §1
(§3) All cell lines were maintained in RPMI 1640 (Invitrogen, Carlsbad, CA) supplemented with 10% FBS 100 units/mL penicillin, 100 units/mL streptomycin, and 2 mM glutamine.
(§4) Ba/F3, NIH-3T3, cells were infected with retrovirus and PC9GR4 and HCC827 EPR cells infected with lentivirus according to standard protocols, as described previously (Engelman, J. A., et al., Proc Natl Acad Sci USA. 2005; 102:3788-93). Stable clones were obtained by selection in puromycin (2 μg/ml).
(§5) Growth and inhibition of growth was assessed by MTS assay and was performed according to previously established methods (Zhou, W., et al., Nature. 462, 2009, 1070-4; Ercan, D., et al., Cancer Discov. 934, 2012, 934-47). […] All experimental points were set up in six wells and all experiments were repeated at least three times. […] The curves were fitted using a non-linear regression model with a sigmoidal dose response.

[4] = test system: Ba/F3 EGFR DEL/T790M; assay: Ba/F3 cell proliferation (MTS) assay; format: cell-based, murine; conditions: Mus musculus
Procedure: as §1, §2

[5] = test system: Ba/F3 EGFR L858R/T790M/L718Q; assay: Ba/F3 cell proliferation (MTS) assay; format: cell-based, murine; conditions: Mus musculus
Procedure: as §1, §3, §4, §5

[6] = test system: Ba/F3 EGFR L858R; assay: Ba/F3 cell proliferation (MTS) assay; format: cell-based, murine; conditions: Mus musculus
Procedure: as §1, §2

[7] = test system: Ba/F3 EGFR L718Q; assay: cells; conditions: Mus musculus, 72 h
Procedure: as §1, §3
The EGFR L718Q and L844V mutations were introduced via site directed mutagenesis using the Quick Change Site-Directed Mutagenesis kit (Stratagene; La Jolla, CA) according to the manufacturer's instructions. The L718Q mutation was generated using forward primer 5′-[sequence]-3′ (SEQ. ID. NO. 1) and reverse primer 5′ [sequence]-3′ (SEQ. ID. NO. 2). The L844V mutation was generated using forward primer 5′-[sequence]-3′ (SEQ. ID. NO. 3) and reverse primer 5′-[sequence]-3′ (SEQ. ID. NO. 4). All constructs were confirmed by DNA sequencing. The constructs were shuttled into the retroviral vector JP1540 or lentiviral vector JP1698 using the BD Creator™ System (BD Biosciences). […]
Growth and inhibition of growth was assessed by MTS assay and was performed according to previously established methods (Zhou, W., et al., Nature. 462, 2009, 1070-4; Ercan, D., et al., Cancer Discov. 934, 2012, 934-47). […]

[8] = test system: Ba/F3 EGFR DEL/844V; assay: Ba/F3 cell proliferation (MTS) assay; format: cell-based, murine; conditions: Mus musculus
Procedure: as §1, §3, §4, §5

[9] = test system: Ba/F3 EGFR L858R/L718Q; assay: Ba/F3 cell proliferation (MTS) assay; format: cell-based, murine; conditions: Mus musculus
Procedure: as §1, §3, §4, §5

[10] = test system: Ba/F3 EGFR DEL/L718Q; assay: Ba/F3 cell proliferation (MTS) assay; format: cell-based, murine; conditions: Mus musculus
Procedure: as §1, §3, §4, §5

[11] = test system: Ba/F3 EGFR DEL; assay: Ba/F3 cell proliferation (MTS) assay; format: cell-based, murine; conditions: Mus musculus
Procedure: as §1, §2

[12] = Ba/F3, EGFR L858R/T790M, 72 hours, MTS, read-out: IC50
[13] = Ba/F3, EGFR WT, 72 hours, MTS, read-out: IC50
[14] = Ba/F3, EGFR DEL/T790M/L718Q, 72 hours, MTS, read-out: IC50
[15] = Ba/F3, EGFR DEL/T790M, 72 hours, MTS, read-out: IC50
[16] = Ba/F3, EGFR L858R/T790M/L718Q, 72 hours, MTS, read-out: IC50
[17] = Ba/F3, EGFR L858R, 72 hours, MTS, read-out: IC50
[18] = Ba/F3, EGFR DEL/844V, 72 hours, MTS, read-out: IC50
[19] = Ba/F3, EGFR L858R/L718Q, 72 hours, MTS, read-out: IC50
[20] = Ba/F3, EGFR DEL/L718Q, 72 hours, MTS, read-out: IC50
[21] = Ba/F3, EGFR DEL, 72 hours, MTS, read-out: IC50

| IC50 [1, 12] | IC50 [2, 13] | IC50 [3, 14] | IC50 [4, 15] | IC50 [5, 16] | IC50 [6, 17] | IC50 [8, 18] | IC50 [9, 19] | IC50 [10, 20] | IC50 [11, 21] | Compound | IC50 [7] | other results |
| --- | --- | --- | --- | --- | --- | --- | --- | --- | --- | --- | --- | --- |
| – | – | – | – | – | – | – | – | – | – | C=CC(=O)Nc1cc(Nc2nccc(-c3cn(C)c4ccccc34)n2)c(OC)cc1N(C)CCN(C)C [AZD9291] | 1.25 µM | IC50 ([1]; Ba/F3 EGFR, 72 h): 0.01 µM; IC50 ([2]; Ba/F3 EGFR, 72 h): 0.023 µM; IC50 ([3]; Ba/F3 EGFR, 72 h): 0.576 µM; IC50 ([4]; Ba/F3 EGFR, 72 h): 0.01 µM; IC50 ([5]; Ba/F3 EGFR, 72 h): 1.27 µM; IC50 ([6]; Ba/F3 EGFR-L858R, 72 h): 0.00198 µM; IC50 ([8]; Ba/F3 EGFR, 72 h): 0.0151 µM; IC50 ([9]; Ba/F3 EGFR, 72 h): 1.18 µM; IC50 ([10]; Ba/F3 EGFR, 72 h): 0.0554 µM; IC50 ([11]; Ba/F3 EGFR, 72 h): 0.00179 µM |
| 0.0142 µM | 0.1 µM | 2.01 µM | 0.0192 µM | 2.23 µM | 0.0068 µM | 0.957 µM | 2.74 µM | 1.49 µM | 0.0084 µM | C=CC(=O)Nc1cccc(Oc2nc(Nc3ccc(N4CCN(C)CC4)cc3OC)ncc2Cl)c1 [WZ4002] | 2.89 µM | – |
| 0.189 µM | 0.323 µM | 0.644 µM | 0.0648 µM | 1.97 µM | 0.06 µM | 0.0531 µM | 2.06 µM | 0.176 µM | 0.0428 µM | C=CC(=O)Nc1cc(Nc2nccc(-n3ccc4cccnc43)n2)c(OC)cc1N(C)CCN(C)C [Compound I-1, N-(5-((4-(1H-pyrrolo[2,3-b]pyridin-1-yl)pyrimidin-2-yl)amino)-2-((2-(dimethylamino)ethyl)(methyl)amino)-4-methoxyphenyl)acrylamide] | – | – |
